Earlier results in patent US20160000732A1, “ORAL PHARMACEUTICAL COMPOSITIONS OF OSPEMIFENE” (CADILA HEALTHCARE LIMITED, priority 2014, published 2016).

How the values were obtained:
[1] = classical hormonal tests, Kangas 1990
[2] = experimental models and human volunteers; WO 1996/07402, WO 1997/32574

What does the source list for `OCCOc1ccc(/C(=C(/CCCl)c2ccccc2)c2ccccc2)cc1` [Ospemifene, 2-[4-(4-chloro-1,2-diphenylbut-1-enyl)phenoxy]ethanol]?
estrogenic and antiestrogenic effects [1]: relatively weak; total and LDL cholesterol levels [2]: decreases
